Results as given in patent US7951844B2, “Tranquilizer and functional food” (J-Oil Mills, Inc., priority 2007, dated 2011).
Structures can show the parent of a compound that is named as a salt.

Legend:
[1] = test system: fear-conditioned mice; test: fear condition-induced akinesia time (conditioned-fear measurement system); assay type: in vivo, mouse; settings: for akinesia time (for every 60 seconds) compared to the control group, two-way analysis of variance: 30 mg/kg oral for 7 days, P<0.01 (menaquinone-4), P<0.05 (menaquinone-7); for akinesia time (% of freezing), period from 0 to 60 seconds / akinesia time (% of freezing), period from 180 to 240 seconds: male C57BL/6 mice, 30 mg/kg oral forced feeding for 7 days, measured 2 h after final administration, mean of 10 mice
Text: A stimulus from the outside enters the brain through the sense organs, and is sent to the amygdaloid body and the hippocampus-lateral septum system, where it is judged if the stimulus is beneficial or harmful. (The judgment is referred to as “biological value evaluation”). The information that has been evaluated is stored in the amygdaloid body and the hippocampus. At the same time, biological response occurs, and biological response is visually recognized by an observer as emotional expression. A human and an animal learn (acquire) information on the biological value evaluation they gained through their experiences. When they receive the same stimulus, the stimulus is compared in the amygdaloid body and the hippocampus-lateral septum system. The response that occurs at the time is referred to as “conditioned emotional response”. Assume that a rat or mouse is put into a specified box and an electric stimulus it hates is applied to the rat or mouse. […] The akinesia is referred to as “condition-induced akinesia”. Currently, an animal model for evaluating anti-anxiety and anti-depression effects is widely used while using decrease of akinesia time as an index.
Whether the tranquilizer of the invention has a similar effect as a commercially-available anti-depressant was examined using said anxiety evaluation system. Specifically, fear-conditioned mice were fed through forced feeding a sample consisting of vitamin K and medium, or a control sample consisting of medium only, respectively, for 7 days. The effect of each sample was examined on the akinesia time of mice.
Menaquinone-4 and menaquinone-7 as vitamin K to be used as an active ingredient of an anti-anxiety agent of the invention were purchased from Wako Pure Chemical Industries, Ltd. After the given amounts of menaquinone-4 or menaquinone-7 were weighed, they were suspended in 0.5% MC so that a certain concentration is acquired. The control group was fed with only the medium (0.5% MC).
(§1) 10-week old male mice (C57BL/6NCrlCrlj, SPF grade) were purchased from Charles River Laboratories Japan. After 5-day quarantine period and subsequent 5-day acclimatization, weight measurement and observation of the general condition were conducted once a day.
A solid feed (ANG93G, Oriental Yeast Co., Ltd.) was placed in the feeder, and the mice were allowed to freely take the feed. The mice were allowed to freely drink water using a water bottle. The samples were orally administered through forced feeding in accordance specified method, using a disposable syringe made of polypropylene (manufactured by Terumo Corporation, Japan) attached with a disposable feeding needle for mouse (manufactured by Fuchigami kikai Ltd.). The sample was administered while it was stirred with a stirrer. The sample was administered so that the administration quantity of Vitamin K was 30 mg per kg in weight. The administration amount of liquid was calculated based on 10 ml/kg based using the weight on the date of administration.
(§2) The general conditions and death of a mouse were observed once a day before the administration. The weights were measured once a day before administration. A conditioned-fear measurement system (manufactured by ActiMetrics) was used for measuring electric stimulus and akinesia time. After the mice allocated to the individual groups were placed in the conditioned-fear measurement system, electric stimulus was applied for fear conditioning and the akinesia time was measured simultaneously. Electric stimulus of 0.3 mA for one second in every 15 seconds was applied for 240 seconds. Upon completion of the electric stimulus, the sample was administered to the mice. After 7-day administration, the mice in the control group (0.5% MC) and in the vitamin K-administered groups were placed again in the conditioned-fear measurement system at 2 hours or 2 hours and 1 minute after the final administration, and the akinesia time in 4 minutes was measured under the condition without electric stimulus being applied. […]

[2] = general conditions, death and weights during 7-day administration; assay type: in vivo, mouse; settings: mice, 30 mg/kg oral for 7 days, compared with control group (0.5% MC)
Protocol: as §1
A solid feed (ANG93G, Oriental Yeast Co., Ltd.) was placed in the feeder, and the mice were allowed to freely take the feed. The mice were allowed to freely drink water using a water bottle. […] The sample was administered so that the administration quantity of Vitamin K was 30 mg per kg in weight. The administration amount of liquid was calculated based on 10 ml/kg based using the weight on the date of administration.
as §2, with “A conditioned-fear measurement system (manufactured by ActiMetrics) was used for measuring electric stimulus and akinesia time.” left out, “Electric stimulus of 0.3 mA for one second in every 15 seconds was applied for 240 seconds. Upon completion of the electric stimulus, the sample was administered to the mice.” left out

[3] = MK-7 originating from fermented soybeans taken, compared with MK-4 taken directly (Ozaki et al. 2006); cited from earlier work
[4] = test system: fear-conditioned mice; settings: 7-day oral administration of 30 mg/kg; cited from earlier work

Structure (SMILES) | akinesia time (for every 60 seconds) compared to the control group, two-way analysis of variance [1] | akinesia time (% of freezing), period from 0 to 60 seconds [1] [%] | akinesia time (% of freezing), period from 180 to 240 seconds [1] [%] | weights through the administration period [2] | MK-4 in the brain [3] | condition-induced akinesia [4]
CC(C)=CCC/C(C)=C/CC/C(C)=C/CC/C(C)=C/CC1=C(C)C(=O)c2ccccc2C1=O [menaquinone-4] | significant decreases in the akinesia time were observed | 31.99 | 22.29 | remained substantially constant | – | –
CC(C)=CCC/C(C)=C/CC/C(C)=C/CC/C(C)=C/CC/C(C)=C/CC/C(C)=C/CC/C(C)=C/CC1=C(C)C(=O)c2ccccc2C1=O [menaquinone-7] | significant decreases in the akinesia time were observed | 38.84 | 20.83 | remained substantially constant | increases in the brain more remarkably | –
CCN(CC)C(=O)C1(c2ccccc2)CC1CN (stereo not shown) [milnacipran hydrochloride] | – | – | – | – | – | akinesia is alleviated
